Assay results reported in US20020035061A1, “COMPOSITIONS AND METHODS FOR TREATING INFECTIONS USING CATIONIC PEPTIDES ALONE OR IN COMBINATION WITH ANTIBIOTICS” (priority 1996, published 2002).
Where two headings read alike, the source gives them in different places.

Legend:
Assay type in all cases: cell-based
A. calcoaceticus = tested on: A. calcoaceticus
E. cloacae = E. cloacae strain ECL006
E. coli = tested on: E. coli
E. faecalis = tested on: E. faecalis
H. influenzae = experiment: Agarose dilution assay (MIC)
K. pneumoniae = settings: for MIC: K. pneumoniae strain KP001
P. aeruginosa = tested on: P. aeruginosa
S. aureus = tested on: S. aureus
S. epidermidis = tested on: S. epidermidis
S. maltophilia = tested on: S. maltophilia
S. marcescens = tested on: S. marcescens
S. pneumoniae = experiment: Agarose dilution assay (MIC)
S. pyogenes = experiment: Agarose dilution assay (MIC)
bacterial isolates = experiment: microbe, parasite or virus in culture; settings: for Peptide MIC Alone: Piperacillin section; for FIC: peptide + Piperacillin
[1] = tested on: inherently resistant microorganisms; experiment: microbe, parasite or virus in culture; settings: S. aureus MRSA; for Peptide MIC Alone: Piperacillin section; for FIC: peptide + Piperacillin
[2] = tested on: microorganisms with acquired resistance; experiment: microbe, parasite or virus in culture; settings: for Peptide MIC Alone: Piperacillin section; for FIC: peptide + Piperacillin
E. faecium = E. faecium strain EFM001

For ILRWVWWVWRRK [MBI 11F4CN], the “MIC, Peptide” value (A. calcoaceticus; A. calcoaceticus AC002, unmodified parent peptide) was 4 µg/mL, the MIC (A. calcoaceticus; A. calcoaceticus strain AC003) was 16 µg/mL and the MIC (E. cloacae) was 16 µg/mL. For the same sequence, the “MIC, Peptide” value (E. coli; E. coli ECO005, unmodified parent peptide) was 8 µg/mL, the MIC (E. coli; E. coli strain ECO001) was 8 µg/mL and the “MIC, Peptide” value (E. faecalis; E. faecalis EFS008, unmodified parent peptide) was 2 µg/mL. For the same sequence, the MIC (E. faecalis; E. faecalis strain EFS004) was 8 µg/mL, the MIC (H. influenzae; H. influenzae strain HIN003) was over 128 µg/mL and the “MIC, Peptide” value (K. pneumoniae; K. pneumoniae KP001, unmodified parent peptide) was 4 µg/mL. For the same sequence, the MIC (K. pneumoniae) was 8 µg/mL, the “MIC, Peptide” value (P. aeruginosa; P. aeruginosa PA004, unmodified parent peptide) was 32 µg/mL and the MIC (P. aeruginosa; P. aeruginosa strain PA020) was 32 µg/mL. For the same sequence, the “MIC, Peptide” value (S. aureus; S. aureus SA014, unmodified parent peptide) was 2 µg/mL, the MIC (S. aureus; S. aureus strain SA007) was 1 µg/mL and the MIC (S. epidermidis; S. epidermidis strain SE010) was 2 µg/mL. The “MIC, Peptide” value (S. maltophilia; S. maltophilia SMA002, unmodified parent peptide) was 16 µg/mL, the MIC (S. maltophilia; S. maltophilia strain SMA006) was 16 µg/mL and the MIC (S. marcescens; S. marcescens strain SBSM1) was over 128 µg/mL. The MIC (S. pneumoniae; S. pneumoniae strain SBSPN3) was over 128 µg/mL, the MIC (S. pyogenes; S. pyogenes strain SPY005) was 32 µg/mL and the “Peptide MIC + Piperacillin” value (bacterial isolates; E. cloacae 10) was 8 µg/mL. The “Piperacillin MIC + Peptide” value (bacterial isolates; E. cloacae 10) was 4 µg/mL, the “Peptide MIC Alone” value (bacterial isolates; E. cloacae 10) was 16 µg/mL and the “Peptide MIC + Piperacillin” value (bacterial isolates; H. influenzae SB1) was 0.125 µg/mL. For the same sequence, the “Piperacillin MIC + Peptide” value (bacterial isolates; H. influenzae SB1) was 0.25 µg/mL, the “Peptide MIC Alone” value (bacterial isolates; H. influenzae SB1) was over 128 µg/mL and the “Peptide MIC + Piperacillin” value (bacterial isolates; P. aeruginosa 7) was 8 µg/mL. For the same sequence, the “Piperacillin MIC + Peptide” value (bacterial isolates; P. aeruginosa 7) was 64 µg/mL, the “Peptide MIC Alone” value (bacterial isolates; P. aeruginosa 7) was 64 µg/mL and the “Piperacillin MIC + Peptide” value (bacterial isolates; P. aeruginosa 23) was 64 µg/mL. The “Peptide MIC Alone” value (bacterial isolates; P. aeruginosa 23) was 64 µg/mL, the “Peptide MIC + Piperacillin” value (bacterial isolates; S. aureus 19 MRSA) was 2 µg/mL and the “Piperacillin MIC + Peptide” value (bacterial isolates; S. aureus 19 MRSA) was 4 µg/mL. The “Peptide MIC Alone” value (bacterial isolates; S. aureus 19 MRSA) was 4 µg/mL, the “Peptide MIC + Piperacillin” value (bacterial isolates; S. maltophilia 2) was 0.5 µg/mL and the “Piperacillin MIC + Peptide” value (bacterial isolates; S. maltophilia 2) was 32 µg/mL. The “Peptide MIC Alone” value (bacterial isolates; S. maltophilia 2) was 16 µg/mL, the “Peptide MIC + Piperacillin” value (bacterial isolates; S. marcescens 1) was 0.5 µg/mL and the “Piperacillin MIC + Peptide” value (bacterial isolates; S. marcescens 1) was 64 µg/mL. The “Peptide MIC Alone” value (bacterial isolates; S. marcescens 1) was over 128 µg/mL, the FIC (bacterial isolates; E. cloacae 10) was 0.52 and the FIC (bacterial isolates; H. influenzae SB1) was 0.50. The FIC (bacterial isolates; P. aeruginosa 7) was 0.38, the FIC (bacterial isolates; P. aeruginosa 23) was 0.31 and the FIC (bacterial isolates; S. aureus 19 MRSA) was 0.53. The FIC (bacterial isolates; S. maltophilia 2) was 0.53, the FIC (bacterial isolates; S. marcescens 1) was 0.25 and the “Peptide MIC + Piperacillin” value [1] was 2 µg/mL. For the same sequence, the “Peptide MIC Alone” value [1] was 4 µg/mL, the FIC [1] was 0.53 and the “Peptide MIC + Piperacillin” value ([2]; E. cloacae 10) was 8 µg/mL. For the same sequence, the “Piperacillin MIC + Peptide” value ([2]; E. cloacae 10) was 4 µg/mL, the “Peptide MIC Alone” value ([2]; E. cloacae 10) was 16 µg/mL and the “Peptide MIC + Piperacillin” value ([2]; H. influenzae 1) was 64 µg/mL. For the same sequence, the “Piperacillin MIC + Peptide” value ([2]; H. influenzae 1) was 16 µg/mL, the “Peptide MIC Alone” value ([2]; H. influenzae 1) was over 128 µg/mL and the “Peptide MIC + Piperacillin” value ([2]; P. aeruginosa 7) was 8 µg/mL. For the same sequence, the “Piperacillin MIC + Peptide” value ([2]; P. aeruginosa 7) was 64 µg/mL, the “Peptide MIC Alone” value ([2]; P. aeruginosa 7) was 64 µg/mL and the “Peptide MIC + Piperacillin” value ([2]; P. aeruginosa 23) was 4 µg/mL. The “Piperacillin MIC + Peptide” value ([2]; P. aeruginosa 23) was 64 µg/mL, the “Peptide MIC Alone” value ([2]; P. aeruginosa 23) was 64 µg/mL and the “Peptide MIC + Piperacillin” value ([2]; S. maltophilia 2) was 4 µg/mL. The “Piperacillin MIC + Peptide” value ([2]; S. maltophilia 2) was 16 µg/mL, the “Peptide MIC Alone” value ([2]; S. maltophilia 2) was 16 µg/mL and the “Peptide MIC + Piperacillin” value ([2]; S. marcescens 1) was 4 µg/mL. The “Piperacillin MIC + Peptide” value ([2]; S. marcescens 1) was 16 µg/mL, the “Peptide MIC Alone” value ([2]; S. marcescens 1) was over 128 µg/mL and the FIC ([2]; E. cloacae 10) was 0.52. It also gave an FIC ([2]; H. influenzae 1) of 0.75, an FIC ([2]; P. aeruginosa 7) of 0.38 and an FIC ([2]; P. aeruginosa 23) of 0.31. It also gave an FIC ([2]; S. maltophilia 2) of 0.50 and an FIC ([2]; S. marcescens 1) of 0.08.
ILKKWPWWPWRR [MBI 11G7CN] was tested, and the MIC (A. calcoaceticus; A. calcoaceticus strain AC001) was 128 µg/mL, the MIC (E. cloacae) was 64 µg/mL and the MIC (E. coli; E. coli strain ECO005) was 8 µg/mL. For the same sequence, the MIC (E. faecalis; E. faecalis strain EFS002) was 32 µg/mL, the MIC (E. faecium) was 8 µg/mL and the MIC (H. influenzae; H. influenzae strain HIN002) was over 128 µg/mL. It also gave an MIC (H. influenzae; H. influenzae strain SBHIN2) of over 128 µg/mL, an MIC (K. pneumoniae) of 16 µg/mL and an MIC (P. aeruginosa; P. aeruginosa strain PA006) of over 128 µg/mL. It also gave an MIC (S. aureus; S. aureus strain SA012) of 2 µg/mL, an MIC (S. epidermidis; S. epidermidis strain SE002) of 2 µg/mL and an MIC (S. maltophilia; S. maltophilia strain SMA001) of 32 µg/mL. For the same sequence, the MIC (S. marcescens; S. marcescens strain SBSM1) was over 128 µg/mL, the MIC (S. marcescens; S. marcescens strain SMS003) was over 128 µg/mL and the MIC (S. pneumoniae; S. pneumoniae strain SBSPN2) was over 128 µg/mL. The MIC (S. pneumoniae; S. pneumoniae strain SPN044) was over 128 µg/mL, the MIC (S. pyogenes; S. pyogenes strain SPY006) was 16 µg/mL and the “Peptide MIC + Piperacillin” value (bacterial isolates; A. calcoaceticus 3) was 16 µg/mL. The “Piperacillin MIC + Peptide” value (bacterial isolates; A. calcoaceticus 3) was 32 µg/mL, the “Peptide MIC Alone” value (bacterial isolates; A. calcoaceticus 3) was 64 µg/mL and the “Peptide MIC + Piperacillin” value (bacterial isolates; H. influenzae SB1) was 4 µg/mL. For the same sequence, the “Piperacillin MIC + Peptide” value (bacterial isolates; H. influenzae SB1) was 0.25 µg/mL, the “Peptide MIC Alone” value (bacterial isolates; H. influenzae SB1) was over 128 µg/mL and the “Peptide MIC + Piperacillin” value (bacterial isolates; P. aeruginosa 7) was 64 µg/mL. For the same sequence, the “Piperacillin MIC + Peptide” value (bacterial isolates; P. aeruginosa 7) was 64 µg/mL, the “Peptide MIC Alone” value (bacterial isolates; P. aeruginosa 7) was over 128 µg/mL and the “Peptide MIC + Piperacillin” value (bacterial isolates; P. aeruginosa 23) was 1 µg/mL. For the same sequence, the “Piperacillin MIC + Peptide” value (bacterial isolates; P. aeruginosa 23) was 64 µg/mL, the “Peptide MIC Alone” value (bacterial isolates; P. aeruginosa 23) was over 128 µg/mL and the “Peptide MIC + Piperacillin” value (bacterial isolates; S. aureus 18 MRSA) was 8 µg/mL. For the same sequence, the “Piperacillin MIC + Peptide” value (bacterial isolates; S. aureus 18 MRSA) was 64 µg/mL, the “Peptide MIC Alone” value (bacterial isolates; S. aureus 18 MRSA) was 32 µg/mL and the “Peptide MIC + Piperacillin” value (bacterial isolates; S. aureus 19 MRSA) was 0.5 µg/mL. For the same sequence, the “Piperacillin MIC + Peptide” value (bacterial isolates; S. aureus 19 MRSA) was 64 µg/mL, the “Peptide MIC Alone” value (bacterial isolates; S. aureus 19 MRSA) was 8 µg/mL and the “Peptide MIC + Piperacillin” value (bacterial isolates; S. marcescens 1) was 1 µg/mL. The “Piperacillin MIC + Peptide” value (bacterial isolates; S. marcescens 1) was 16 µg/mL, the “Peptide MIC Alone” value (bacterial isolates; S. marcescens 1) was over 128 µg/mL and the FIC (bacterial isolates; A. calcoaceticus 3) was 0.50. The FIC (bacterial isolates; H. influenzae SB1) was 0.52, the FIC (bacterial isolates; P. aeruginosa 7) was 0.50 and the FIC (bacterial isolates; P. aeruginosa 23) was 0.50. The FIC (bacterial isolates; S. aureus 18 MRSA) was 0.50, the FIC (bacterial isolates; S. aureus 19 MRSA) was 0.56 and the FIC (bacterial isolates; S. marcescens 1) was 0.25. The “Peptide MIC + Piperacillin” value [1] was 2 µg/mL, the “Peptide MIC Alone” value [1] was 8 µg/mL and the FIC [1] was 0.25. The “Peptide MIC + Piperacillin” value ([2]; A. calcoaceticus 3) was 32 µg/mL, the “Piperacillin MIC + Peptide” value ([2]; A. calcoaceticus 3) was 16 µg/mL and the “Peptide MIC Alone” value ([2]; A. calcoaceticus 3) was 64 µg/mL. For the same sequence, the “Peptide MIC + Piperacillin” value ([2]; H. influenzae 1) was 64 µg/mL, the “Piperacillin MIC + Peptide” value ([2]; H. influenzae 1) was 16 µg/mL and the “Peptide MIC Alone” value ([2]; H. influenzae 1) was over 128 µg/mL. The “Peptide MIC + Piperacillin” value ([2]; P. aeruginosa 7) was 64 µg/mL, the “Piperacillin MIC + Peptide” value ([2]; P. aeruginosa 7) was 64 µg/mL and the “Peptide MIC Alone” value ([2]; P. aeruginosa 7) was over 128 µg/mL. For the same sequence, the “Peptide MIC + Piperacillin” value ([2]; P. aeruginosa 23) was 1 µg/mL, the “Piperacillin MIC + Peptide” value ([2]; P. aeruginosa 23) was 64 µg/mL and the “Peptide MIC Alone” value ([2]; P. aeruginosa 23) was over 128 µg/mL. The “Peptide MIC + Piperacillin” value ([2]; S. maltophilia 2) was 16 µg/mL, the “Piperacillin MIC + Peptide” value ([2]; S. maltophilia 2) was 16 µg/mL and the “Peptide MIC Alone” value ([2]; S. maltophilia 2) was 64 µg/mL. For the same sequence, the “Peptide MIC + Piperacillin” value ([2]; S. marcescens 1) was 1 µg/mL, the “Piperacillin MIC + Peptide” value ([2]; S. marcescens 1) was 16 µg/mL and the “Peptide MIC Alone” value ([2]; S. marcescens 1) was over 128 µg/mL. It also gave an FIC ([2]; A. calcoaceticus 3) of 0.63, an FIC ([2]; H. influenzae 1) of 0.75 and an FIC ([2]; P. aeruginosa 7) of 0.50. The FIC ([2]; P. aeruginosa 23) was 0.50, the FIC ([2]; S. maltophilia 2) was 0.75 and the FIC ([2]; S. marcescens 1) was 0.25.
